System: actinic keratoses
Settings: 0.1% in a dermatologically acceptable cream base

Q: What does the source list for COc1cc2c(c(OC)c1OC)-c1ccc(OC)c(=O)cc1[C@@H](NC(C)=O)CC2 [colchicine]?
A: actinic keratoses cleared: 35-40%; skin irritation: significant level of skin irritation

Reference: patent US9585962B1, “Treatment for actinic keratoses” (priority 2013, dated 2017)
